Test results from publication PMC2009656 (British Journal of Cancer, 1978).

Assays:
[1] = tested on: isolated liver rough endoplasmic reticulum (RER); type: biochemical, rat
[2] = tested on: isolated liver rough endoplasmic reticulum (RER); type: biochemical, rat; remark: listed apart in the source

ClCOCCl [Bis(Chloromethyl)ether]
Degranulation (%) [1]: 47. %

NN [Hydrazine]
Degranulation (%) [1]: 2 - 4%

CCC1(c2ccccc2)C(=O)NC(=O)NC1=O [Phenobarbital]
Degranulation (%) [1]: 0-6%

Aflatoxin B1
Degranulation (%) [1]: 1-3%

EDTA
degranulation obtained from RNA/protein ratios [2]: 59.8%
